Test results reported in ChEMBL document CHEMBL4049409, “Structure-based discovery of LpxC inhibitors” (Bioorg Med Chem Lett, 2017).
Converted amounts (≈) assume the structure as drawn.

What was measured:
[1] = tested on: Rattus norvegicus; assay: Acute toxicity in rat at 200 mg/kg using capsitol capsulated formulation; format: organism-based; conditions: in vivo
[2] = Clearance in cynomolgus monkey at 10 mg/kg, iv; format: ADME, organism-based, Macaca fascicularis; conditions: in vivo
[3] = tested on: Rattus norvegicus; assay: Dose normalized AUC in rat at 10 mg/kg, iv; format: ADME, organism-based; conditions: in vivo
[4] = Clearance in mouse at 10 mg/kg, sc; format: ADME, organism-based; conditions: in vivo
[5] = target: T1, UDP-3-O-acyl-N-acetylglucosamine deacetylase (Escherichia coli K-12, UniProt P0A725); assay: Inhibition of LpxC in Escherichia coli isolate 35 ATCC 25922; parameters: species or system Escherichia coli ATCC 25922
T1 sequence (P0A725 whole entry): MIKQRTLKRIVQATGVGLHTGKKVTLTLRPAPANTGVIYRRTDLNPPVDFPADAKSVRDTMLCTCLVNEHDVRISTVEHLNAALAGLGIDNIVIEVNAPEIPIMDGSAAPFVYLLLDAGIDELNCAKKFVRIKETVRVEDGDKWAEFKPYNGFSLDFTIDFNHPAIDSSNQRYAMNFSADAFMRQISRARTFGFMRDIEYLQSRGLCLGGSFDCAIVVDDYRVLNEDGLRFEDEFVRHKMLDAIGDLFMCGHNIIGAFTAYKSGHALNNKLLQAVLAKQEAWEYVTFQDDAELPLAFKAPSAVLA

[6] = Half life in mouse at 2 mg/kg, iv; format: ADME, organism-based; conditions: in vivo
[7] = tested on: Pseudomonas aeruginosa; assay: Antibacterial activity against Pseudomonas aeruginosa assessed as 3-log reduction in bacterial burden in in-vivo thigh infection model; format: functional
[8] = tested on: Klebsiella pneumoniae; assay: Antibacterial activity against Klebsiella pneumoniae isolate 21 ATCC 4352; format: functional
[9] = Half life in cynomolgus monkey at 10 mg/kg, iv; format: ADME, organism-based, Macaca fascicularis; conditions: in vivo
[10] = tested on: Mus musculus; assay: Dose normalized AUC in mouse at 2 mg/kg, iv; format: ADME, organism-based; conditions: in vivo
[11] = Fraction unbound in cynomolgus monkey plasma at 10 uM by equilibrium dialysis method; format: ADME, cell-free, Macaca fascicularis
[12] = Fraction unbound in mouse plasma at 10 uM by equilibrium dialysis method; format: ADME, cell-free
[13] = tested on: Pseudomonas aeruginosa; assay: Antibacterial activity against Pseudomonas aeruginosa isolate 847; format: functional
[14] = target: T2, UDP-3-O-acyl-N-acetylglucosamine deacetylase (Pseudomonas aeruginosa (strain ATCC 15692 / PAO1 / 1C / PRS 101 / LMG12228), UniProt P47205); assay: Inhibition of LpxC in Pseudomonas aeruginosa isolate 44 ATCC 27853
T2 sequence (P47205 whole entry): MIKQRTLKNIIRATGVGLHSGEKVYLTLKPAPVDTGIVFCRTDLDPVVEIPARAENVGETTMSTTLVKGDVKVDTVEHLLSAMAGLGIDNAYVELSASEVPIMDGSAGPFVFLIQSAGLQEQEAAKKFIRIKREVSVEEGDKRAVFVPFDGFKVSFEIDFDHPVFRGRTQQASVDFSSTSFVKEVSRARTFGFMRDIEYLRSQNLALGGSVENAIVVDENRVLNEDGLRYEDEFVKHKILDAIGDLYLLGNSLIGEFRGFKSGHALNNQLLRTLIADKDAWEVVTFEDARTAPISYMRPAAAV

[15] = Clearance in mouse at 2 mg/kg, iv; format: ADME, organism-based; conditions: in vivo
[16] = Fraction unbound in human plasma at 10 uM by equilibrium dialysis method; format: ADME, cell-free
[17] = Clearance in rat at 10 mg/kg, iv; format: ADME, organism-based; conditions: in vivo
[18] = tested on: Pseudomonas aeruginosa; assay: Antibacterial activity against Pseudomonas aeruginosa assessed as 3-log reduction in bacterial burden in in-vivo lung infection model; format: functional
[19] = target: T2, UDP-3-O-acyl-N-acetylglucosamine deacetylase; assay: Inhibition of LpxC in Pseudomonas aeruginosa isolate 847
[20] = Volume of distribution at steady state in rat at 10 mg/kg, iv; format: ADME, organism-based; conditions: in vivo, read-out: Vdss
[21] = species on record: Rattus norvegicus; assay: Displacement of sodium channel site 2 in [3H]Batrachotoxinin from Wistar rat brain membranes at 25 uM after 60 mins relative to control; conditions: Membrane
[22] = target: T3, Muscarinic acetylcholine receptor M2 (Homo sapiens) (UniProt P08172); assay: Antagonist activity at muscarinic M2 receptor (unknown origin) at 25 uM relative to control
T3 sequence (whole entry): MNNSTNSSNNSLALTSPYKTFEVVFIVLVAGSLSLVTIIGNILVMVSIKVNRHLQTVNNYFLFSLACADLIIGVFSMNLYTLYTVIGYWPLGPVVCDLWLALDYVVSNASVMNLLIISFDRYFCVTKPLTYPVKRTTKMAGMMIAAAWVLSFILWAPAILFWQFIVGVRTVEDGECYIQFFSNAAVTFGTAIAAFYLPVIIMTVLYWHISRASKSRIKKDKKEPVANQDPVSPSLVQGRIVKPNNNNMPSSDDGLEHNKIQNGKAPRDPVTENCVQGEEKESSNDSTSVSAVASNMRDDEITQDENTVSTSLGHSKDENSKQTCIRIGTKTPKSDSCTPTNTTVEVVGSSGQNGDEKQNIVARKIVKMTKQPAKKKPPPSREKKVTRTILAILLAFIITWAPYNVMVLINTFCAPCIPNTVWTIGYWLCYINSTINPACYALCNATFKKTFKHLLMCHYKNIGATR

[23] = Aqueous solubility of the compound in pH 7.4 buffer; format: physicochemical
[24] = tested on: Pseudomonas aeruginosa; assay: Antibacterial activity against Pseudomonas aeruginosa isolate 44 ATCC 27853; format: functional
[25] = tested on: Pseudomonas aeruginosa; assay: Antibacterial activity against Pseudomonas aeruginosa isolate 839 harboring mexAB-oprM deletion mutant; format: functional
[26] = tested on: Rattus norvegicus; assay: Toxicity in rat at 100 mg/kg, iv administered as bolus dose using 10% capsitol formulation for 7 days; format: organism-based; conditions: in vivo, 168 h
[27] = tested on: Escherichia coli; assay: Antibacterial activity against Escherichia coli isolate 35 ATCC 25922; format: functional
[28] = tested on: Escherichia coli; assay: Antibacterial activity against Escherichia coli assessed as 2 log reduction in bladder bacterial burden in in-vivo urinary tract infection model; format: functional
[29] = Volume of distribution at steady state in mouse at 2 mg/kg, iv; format: ADME, organism-based; conditions: in vivo, read-out: Vdss
[30] = tested on: Cynomolgus monkey; assay: Dose normalized AUC in cynomolgus monkey at 10 mg/kg, iv; format: ADME, organism-based, Macaca fascicularis; conditions: in vivo
[31] = tested on: Mus musculus; assay: Dose normalized AUC in mouse at 10 mg/kg, sc; format: ADME, organism-based; conditions: in vivo
[32] = Fraction unbound in rat plasma at 10 uM by equilibrium dialysis method; format: ADME, cell-free
[33] = Bioavailability in mouse at 10 mg/kg, sc; format: ADME, organism-based; conditions: in vivo
[34] = Half life in rat at 10 mg/kg, iv; format: ADME, organism-based; conditions: in vivo
[35] = tested on: Rattus norvegicus; assay: Acute toxicity in rat at 75 mg/kg using Tween-80 formulation; format: organism-based; conditions: in vivo
[36] = tested on: Klebsiella pneumoniae; assay: Antibacterial activity against Klebsiella pneumoniae assessed as 3 log reduction in lung bacterial burden in in-vivo lung infection model; format: functional
[37] = Volume of distribution at steady state in cynomolgus monkey at 10 mg/kg, iv; format: ADME, organism-based, Macaca fascicularis; conditions: in vivo, read-out: Vdss
[38] = tested on: Pseudomonas aeruginosa; assay: Antibacterial activity against Pseudomonas aeruginosa assessed as reduction in bacterial burden in in-vivo blood infection septicemia model; format: functional; conditions: read-out: PD50
[39] = Displacement of sodium channel site 2 in [3H]Batrachotoxinin from Wistar rat brain membranes after 60 mins; parameters: species or system Membrane
[40] = Half life in mouse at 10 mg/kg, sc; format: ADME, organism-based; conditions: in vivo
[41] = target: Sigma intracellular receptor 2 (Homo sapiens) (UniProt Q5BJF2); assay: Antagonist activity at sigma2 receptor (unknown origin) at 25 uM relative to control
[42] = Inhibition of LpxC in Klebsiella pneumoniae isolate 21 ATCC 4352
[43] = Inhibition of LpxC in Acinetobacter baumannii focus ID 961025
[44] = tested on: Acinetobacter baumannii; assay: Antibacterial activity against Acinetobacter baumannii focus ID 961025; format: functional

Sequence of Sigma intracellular receptor 2 (Homo sapiens) (Q5BJF2 whole entry): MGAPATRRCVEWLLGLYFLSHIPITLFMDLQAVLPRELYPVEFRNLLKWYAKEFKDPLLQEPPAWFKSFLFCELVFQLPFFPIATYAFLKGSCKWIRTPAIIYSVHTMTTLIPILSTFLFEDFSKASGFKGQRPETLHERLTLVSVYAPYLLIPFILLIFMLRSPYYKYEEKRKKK

## CC(C)(N)[C@H](N[C@H]1CCc2cc(C#Cc3ccc(Cn4ccnc4CO)cc3)ccc21)C(=O)NO
[1]
  Activity: Non-Toxic
[2]
  clearance: 4.39 mL/min/kg
[3]
  AUC/dose: 1.07 µg·h/mL/mg/kg
[4]
  CL/F: 24.4 mL/min/kg
[5]
  IC50: 4 nM
[6]
  half-life: 1.7 h
[7]
  ED: 25 mg/kg
[8]
  MIC: 0.125 µg/mL (≈ 0.264 µM)
  MIC90: 8 µg/mL (≈ 16.9 µM)
[9]
  half-life: 6.54 h
[10]
  AUC/dose: 0.95 µg·h/mL/mg/kg
[11]
  fraction unbound at 10 µM: 0.047
[12]
  fraction unbound at 10 µM: 0.067
[13]
  MIC: 4 µg/mL (≈ 8.45 µM)
[14]
  IC50: 4 nM
[15]
  clearance: 17.5 mL/min/kg
[16]
  fraction unbound at 10 µM: 0.06
[17]
  clearance: 15.6 mL/min/kg
[18]
  ED: 32 mg/kg
[19]
  IC50: 2 nM
[20]
  Vd: 0.68 L/kg
[21]
  inhibition: 97%
[22]
  inhibition: > 50%
[23]
  solubility: 850 µg/mL (≈ 1790 µM)
[24]
  MIC: 1 µg/mL (≈ 2.11 µM)
  MIC90: 4 µg/mL (≈ 8.45 µM)
[25]
  MIC: 0.125 µg/mL (≈ 0.264 µM)
[26]
  Activity: Non-Toxic
[27]
  MIC: 0.5 to 1 µg/mL (≈ 1.06 to 2.11 µM)
  MIC90: 1 µg/mL (≈ 2.11 µM)
[28]
  ED: 15.1 mg/kg
[29]
  Vd: 0.4 L/kg
[30]
  AUC/dose: 4.07 µg·h/mL/mg/kg
[31]
  AUC/dose: 0.7 µg·h/mL/mg/kg
[32]
  fraction unbound at 10 µM: 0.05
[33]
  bioavailability: 74%
[34]
  half-life: 1.87 h
[35]
  Activity: Toxic
[36]
  ED: 2.7 mg/kg
[37]
  Vd: 0.38 L/kg
[38]
  ED50: 13 mg/kg
[39]
  IC50: 400 nM
[40]
  half-life: 1.2 h
[41]
  inhibition: > 50%

## CC(C)(N)[C@H](NC1COCc2cc(C#Cc3ccc(CN4CCOCC4)cc3)ccc21)C(=O)NO (stereo not given in full)
[5]
  IC50: 5 nM
[13]
  MIC: 4 µg/mL (≈ 8.36 µM)
[14]
  IC50: 8 nM
[24]
  MIC: 4 µg/mL (≈ 8.36 µM)
[25]
  MIC: 0.25 µg/mL (≈ 0.522 µM)
[27]
  MIC: 0.5 µg/mL (≈ 1.04 µM)

## CC(C)(O)[C@H](N[C@H]1CCc2cc(C#Cc3ccc(CN4CCOCC4)cc3)ccc21)C(=O)NO
[5]
  IC50: 1 nM
[8]
  MIC: < 0.03 µg/mL
[14]
  IC50: 3 nM
[19]
  IC50: 0.4 nM
[24]
  MIC: 32 µg/mL (≈ 69 µM)
[25]
  MIC: 0.25 µg/mL (≈ 0.539 µM)
[27]
  MIC: 0.25 µg/mL (≈ 0.539 µM)

## CC(C)(N)[C@H](N[C@H]1CCc2cc(C#Cc3ccc(CN4CCOCC4)cc3)ccc21)C(=O)NO
[5]
  IC50: 2 nM
[13]
  MIC: 0.5 µg/mL (≈ 1.08 µM)
[14]
  IC50: 6 nM
[19]
  IC50: 1 nM
[24]
  MIC: 4 µg/mL (≈ 8.65 µM)
[25]
  MIC: 0.25 µg/mL (≈ 0.54 µM)
[27]
  MIC: 0.5 µg/mL (≈ 1.08 µM)

## C[C@@H](O)[C@H](N[C@H]1CCc2cc(C#Cc3ccc(CN4CCOCC4)cc3)ccc21)C(=O)NO
[5]
  IC50: 2 nM
[8]
  MIC: < 0.125 µg/mL
[13]
  MIC: 2 µg/mL (≈ 4.45 µM)
[14]
  IC50: 3 nM
[19]
  IC50: 2 nM
[42]
  IC50: 2 nM
[24]
  MIC: 8 µg/mL (≈ 17.8 µM)
[25]
  MIC: 0.25 µg/mL (≈ 0.556 µM)
[27]
  MIC: < 0.125 µg/mL
[43]
  IC50: 70 nM
[44]
  MIC: 32 µg/mL (≈ 71.2 µM)
